Assay results published in ChEMBL document CHEMBL1909046, “DrugMatrix in vitro pharmacology data”.

Columns and labels:
[1] = biological target: T1, Muscarinic acetylcholine receptor M5 (Homo sapiens, UniProt P08912); assay type: cell membranes, CHO-K1, Membrane; settings: cho-k1; further: in other assays of this panel Not Active means under 50% inhibition at 10 µM
T1 sequence (P08912 whole entry): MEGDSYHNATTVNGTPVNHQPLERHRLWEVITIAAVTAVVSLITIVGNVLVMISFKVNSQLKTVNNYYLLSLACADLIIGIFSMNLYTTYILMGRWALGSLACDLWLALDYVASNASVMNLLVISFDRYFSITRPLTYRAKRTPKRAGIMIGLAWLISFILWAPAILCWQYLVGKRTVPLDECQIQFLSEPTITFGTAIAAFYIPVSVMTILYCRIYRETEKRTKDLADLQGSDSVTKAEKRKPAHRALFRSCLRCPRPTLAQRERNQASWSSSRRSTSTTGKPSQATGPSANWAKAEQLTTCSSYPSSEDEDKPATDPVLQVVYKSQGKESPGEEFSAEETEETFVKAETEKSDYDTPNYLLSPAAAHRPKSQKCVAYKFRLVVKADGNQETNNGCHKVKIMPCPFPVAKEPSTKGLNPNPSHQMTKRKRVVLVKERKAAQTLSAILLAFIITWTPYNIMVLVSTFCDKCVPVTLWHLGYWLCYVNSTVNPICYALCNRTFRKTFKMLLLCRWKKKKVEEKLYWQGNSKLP

[2] = biological target: T2, Muscarinic acetylcholine receptor M2 (Homo sapiens, UniProt P08172); assay type: cell membranes, CHO-K1, Membrane; settings: cho-k1; further: in other assays of this panel Not Active means under 50% inhibition at 10 µM
T2 sequence (P08172 whole entry): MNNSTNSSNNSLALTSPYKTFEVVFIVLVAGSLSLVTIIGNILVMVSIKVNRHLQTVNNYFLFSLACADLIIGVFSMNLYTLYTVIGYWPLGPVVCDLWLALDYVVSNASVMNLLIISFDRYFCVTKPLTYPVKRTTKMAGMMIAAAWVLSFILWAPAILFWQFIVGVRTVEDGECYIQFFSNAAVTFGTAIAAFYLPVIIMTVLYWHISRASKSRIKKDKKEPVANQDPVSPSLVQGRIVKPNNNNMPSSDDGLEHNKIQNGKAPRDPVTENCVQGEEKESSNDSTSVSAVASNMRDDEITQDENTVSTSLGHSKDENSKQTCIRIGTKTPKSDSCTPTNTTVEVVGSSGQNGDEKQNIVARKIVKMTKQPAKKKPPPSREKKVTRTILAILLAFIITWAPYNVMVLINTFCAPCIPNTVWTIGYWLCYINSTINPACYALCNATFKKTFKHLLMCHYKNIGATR

[3] = DRUGMATRIX: GABAA, Muscimol, Central radioligand binding (ligand: [3H] Muscimol); assay type: cell membranes, Rattus norvegicus, Wistar, Brain, Membrane; settings: Not Active = under 50% inhibition at 10 µM
[4] = biological target: T3, B2 bradykinin receptor (Homo sapiens, UniProt P30411); assay type: cell membranes, Membrane; settings: chem-1; further: in other assays of this panel Not Active means under 50% inhibition at 10 µM
T3 sequence (P30411 whole entry): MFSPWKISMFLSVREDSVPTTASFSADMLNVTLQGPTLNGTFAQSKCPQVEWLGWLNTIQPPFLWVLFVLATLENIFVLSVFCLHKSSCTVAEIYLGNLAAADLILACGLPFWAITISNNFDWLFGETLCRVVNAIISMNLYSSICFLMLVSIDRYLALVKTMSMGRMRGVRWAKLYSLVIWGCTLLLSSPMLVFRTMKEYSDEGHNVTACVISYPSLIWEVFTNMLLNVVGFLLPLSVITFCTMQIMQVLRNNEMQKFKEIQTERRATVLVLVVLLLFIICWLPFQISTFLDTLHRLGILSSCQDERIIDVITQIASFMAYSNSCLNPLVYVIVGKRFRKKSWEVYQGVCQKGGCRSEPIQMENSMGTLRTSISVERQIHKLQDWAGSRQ

[5] = biological target: Delta-type opioid receptor (Homo sapiens, UniProt P41143); assay type: cell membranes, HEK293, Membrane; settings: hek293; further: in other assays of this panel Not Active means under 50% inhibition at 10 µM
[6] = biological target: Cytochrome P450 2D6 (Homo sapiens, UniProt P10635); settings: bti-tn-5b1-4; further: in other assays of this panel Not Active means under 50% inhibition at 10 µM
[7] = biological target: Sodium-dependent noradrenaline transporter (Homo sapiens, UniProt P23975); experiment: DRUGMATRIX: Norepinephrine Transporter radioligand binding (ligand: [125I] RTI-55); assay type: cell membranes, MDCK, Membrane; settings: mdck; Not Active = under 50% inhibition at 10 µM
[8] = biological target: Mitogen-activated protein kinase 3 (Homo sapiens, UniProt P27361); experiment: DRUGMATRIX: Protein Serine/Threonine Kinase, ERK1 enzyme inhibition (substrate: Myelin Basic Protein); parameters: species or system Escherichia coli; settings: Not Active = under 50% inhibition at 10 µM
[9] = biological target: T4, Adenosine receptor A3 (Homo sapiens, UniProt P0DMS8); assay type: cell membranes, CHO-K1, Membrane; settings: cho-k1
T4 sequence (P0DMS8 whole entry): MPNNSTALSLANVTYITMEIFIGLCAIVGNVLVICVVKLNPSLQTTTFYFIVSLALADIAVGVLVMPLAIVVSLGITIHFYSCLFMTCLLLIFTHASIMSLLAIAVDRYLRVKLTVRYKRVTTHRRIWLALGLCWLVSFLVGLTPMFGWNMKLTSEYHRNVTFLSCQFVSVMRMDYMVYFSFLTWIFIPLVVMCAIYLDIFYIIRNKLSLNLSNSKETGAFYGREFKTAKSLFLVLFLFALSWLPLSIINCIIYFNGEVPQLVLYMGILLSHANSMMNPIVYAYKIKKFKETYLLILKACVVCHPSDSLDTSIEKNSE

[10] = biological target: T5, Neuropeptide Y receptor type 1 (Homo sapiens, UniProt P25929); assay type: cell membranes, Membrane; settings: sk-n-mc; further: in other assays of this panel Not Active means under 50% inhibition at 10 µM
T5 sequence (P25929 whole entry): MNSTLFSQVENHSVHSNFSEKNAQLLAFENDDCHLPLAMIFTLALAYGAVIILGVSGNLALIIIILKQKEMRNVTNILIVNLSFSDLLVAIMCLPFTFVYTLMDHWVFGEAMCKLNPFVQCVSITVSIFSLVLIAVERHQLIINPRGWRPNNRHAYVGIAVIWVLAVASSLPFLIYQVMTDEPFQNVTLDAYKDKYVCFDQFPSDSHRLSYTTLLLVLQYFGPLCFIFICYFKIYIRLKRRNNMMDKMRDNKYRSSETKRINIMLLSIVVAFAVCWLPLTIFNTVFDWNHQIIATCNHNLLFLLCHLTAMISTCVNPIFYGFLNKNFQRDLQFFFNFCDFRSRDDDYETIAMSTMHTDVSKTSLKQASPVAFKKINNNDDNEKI

[11] = biological target: Nitric oxide synthase 1 (Rattus norvegicus, UniProt P29476); assay type: tissue-based, Cerebellum; further: in other assays of this panel Not Active means under 50% inhibition at 10 µM
Sequence of Nitric oxide synthase 1 (P29476 whole entry): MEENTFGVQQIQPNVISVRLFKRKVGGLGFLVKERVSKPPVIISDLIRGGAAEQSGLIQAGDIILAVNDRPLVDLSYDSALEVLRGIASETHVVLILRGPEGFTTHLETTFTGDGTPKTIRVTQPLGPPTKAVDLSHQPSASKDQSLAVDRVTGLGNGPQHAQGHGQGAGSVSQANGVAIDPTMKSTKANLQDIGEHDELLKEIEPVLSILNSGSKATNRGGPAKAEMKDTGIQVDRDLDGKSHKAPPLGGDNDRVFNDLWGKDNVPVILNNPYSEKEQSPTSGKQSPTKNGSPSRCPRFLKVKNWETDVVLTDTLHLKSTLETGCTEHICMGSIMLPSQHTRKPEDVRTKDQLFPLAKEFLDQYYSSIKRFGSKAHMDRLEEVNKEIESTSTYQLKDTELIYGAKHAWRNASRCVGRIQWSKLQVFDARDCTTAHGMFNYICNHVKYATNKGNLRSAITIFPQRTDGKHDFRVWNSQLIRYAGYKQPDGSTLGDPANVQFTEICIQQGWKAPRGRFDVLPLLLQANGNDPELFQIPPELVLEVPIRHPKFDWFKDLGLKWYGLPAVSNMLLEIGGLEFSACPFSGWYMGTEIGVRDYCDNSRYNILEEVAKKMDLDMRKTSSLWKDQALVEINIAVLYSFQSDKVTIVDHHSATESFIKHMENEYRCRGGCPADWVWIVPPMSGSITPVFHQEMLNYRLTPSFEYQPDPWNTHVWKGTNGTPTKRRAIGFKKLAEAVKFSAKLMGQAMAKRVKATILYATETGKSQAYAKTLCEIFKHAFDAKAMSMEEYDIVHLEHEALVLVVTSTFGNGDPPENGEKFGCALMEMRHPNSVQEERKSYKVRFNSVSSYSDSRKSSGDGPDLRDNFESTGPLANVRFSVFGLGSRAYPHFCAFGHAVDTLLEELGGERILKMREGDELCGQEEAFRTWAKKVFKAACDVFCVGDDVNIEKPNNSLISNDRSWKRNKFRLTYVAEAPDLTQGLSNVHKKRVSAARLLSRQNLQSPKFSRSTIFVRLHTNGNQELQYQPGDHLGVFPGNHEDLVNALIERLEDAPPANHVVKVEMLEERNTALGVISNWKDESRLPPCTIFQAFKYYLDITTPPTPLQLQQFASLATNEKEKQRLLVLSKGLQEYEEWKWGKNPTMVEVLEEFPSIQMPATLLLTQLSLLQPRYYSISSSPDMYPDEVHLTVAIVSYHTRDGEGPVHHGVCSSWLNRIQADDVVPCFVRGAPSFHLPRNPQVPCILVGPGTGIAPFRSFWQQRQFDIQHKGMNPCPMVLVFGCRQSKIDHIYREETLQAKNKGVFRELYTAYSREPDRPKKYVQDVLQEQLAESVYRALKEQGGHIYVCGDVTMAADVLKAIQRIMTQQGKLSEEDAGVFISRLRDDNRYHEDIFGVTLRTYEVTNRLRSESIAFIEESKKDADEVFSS

Sequence of Mitogen-activated protein kinase 3 (P27361 whole entry): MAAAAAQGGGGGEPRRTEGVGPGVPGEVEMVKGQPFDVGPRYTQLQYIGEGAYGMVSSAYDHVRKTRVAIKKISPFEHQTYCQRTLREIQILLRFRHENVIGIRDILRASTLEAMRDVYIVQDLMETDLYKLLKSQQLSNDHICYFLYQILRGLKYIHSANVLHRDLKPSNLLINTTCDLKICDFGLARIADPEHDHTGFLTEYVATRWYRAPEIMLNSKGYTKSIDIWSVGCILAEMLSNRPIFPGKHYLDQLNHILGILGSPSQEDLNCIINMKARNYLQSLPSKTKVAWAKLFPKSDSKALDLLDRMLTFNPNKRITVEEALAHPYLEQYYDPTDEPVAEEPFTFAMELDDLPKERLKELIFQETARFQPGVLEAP
Sequence of Sodium-dependent noradrenaline transporter (P23975 whole entry): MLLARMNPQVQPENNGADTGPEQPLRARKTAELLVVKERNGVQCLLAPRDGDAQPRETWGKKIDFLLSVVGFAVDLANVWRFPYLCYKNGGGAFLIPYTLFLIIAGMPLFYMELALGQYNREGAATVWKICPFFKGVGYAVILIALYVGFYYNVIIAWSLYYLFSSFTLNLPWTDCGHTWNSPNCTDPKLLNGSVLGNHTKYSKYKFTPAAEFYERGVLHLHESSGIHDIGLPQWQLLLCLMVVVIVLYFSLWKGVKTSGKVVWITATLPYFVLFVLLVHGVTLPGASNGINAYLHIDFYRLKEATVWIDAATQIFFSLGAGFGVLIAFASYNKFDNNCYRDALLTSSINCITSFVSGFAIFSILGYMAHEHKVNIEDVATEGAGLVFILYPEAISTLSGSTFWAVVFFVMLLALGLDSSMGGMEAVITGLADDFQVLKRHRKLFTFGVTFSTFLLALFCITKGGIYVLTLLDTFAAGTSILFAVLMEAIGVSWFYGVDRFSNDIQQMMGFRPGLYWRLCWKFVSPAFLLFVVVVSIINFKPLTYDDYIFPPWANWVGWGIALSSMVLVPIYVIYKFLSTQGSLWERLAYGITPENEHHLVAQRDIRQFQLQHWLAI
Sequence of Cytochrome P450 2D6 (P10635 whole entry): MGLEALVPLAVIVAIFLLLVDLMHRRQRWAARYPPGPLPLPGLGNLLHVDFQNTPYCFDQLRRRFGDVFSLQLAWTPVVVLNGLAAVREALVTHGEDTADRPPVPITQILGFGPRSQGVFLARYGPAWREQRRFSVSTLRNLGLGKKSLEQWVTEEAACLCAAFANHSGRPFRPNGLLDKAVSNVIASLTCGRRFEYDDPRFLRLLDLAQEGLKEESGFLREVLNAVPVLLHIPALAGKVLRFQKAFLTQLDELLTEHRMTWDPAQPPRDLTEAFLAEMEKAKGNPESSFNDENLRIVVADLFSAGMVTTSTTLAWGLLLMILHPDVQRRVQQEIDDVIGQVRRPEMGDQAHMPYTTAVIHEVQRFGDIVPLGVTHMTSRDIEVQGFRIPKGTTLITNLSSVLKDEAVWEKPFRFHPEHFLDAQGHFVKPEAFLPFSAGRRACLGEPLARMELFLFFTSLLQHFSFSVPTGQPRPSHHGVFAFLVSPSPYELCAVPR
Sequence of Delta-type opioid receptor (P41143 whole entry): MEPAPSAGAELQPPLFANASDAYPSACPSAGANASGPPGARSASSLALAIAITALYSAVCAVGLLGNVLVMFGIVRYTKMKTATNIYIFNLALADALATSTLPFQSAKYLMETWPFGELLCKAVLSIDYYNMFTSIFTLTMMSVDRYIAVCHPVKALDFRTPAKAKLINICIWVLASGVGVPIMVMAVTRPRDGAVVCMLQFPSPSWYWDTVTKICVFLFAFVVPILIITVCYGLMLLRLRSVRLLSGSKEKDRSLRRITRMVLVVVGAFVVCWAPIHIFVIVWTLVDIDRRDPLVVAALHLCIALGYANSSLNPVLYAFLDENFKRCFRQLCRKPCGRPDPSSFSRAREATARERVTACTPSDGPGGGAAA

OXALIPLATIN
Not Active: IC50 [1] | Ki [1] | IC50 [2] | Ki [2] | IC50 [3] | Ki [3] | IC50 [4] | Ki [4] | IC50 [5] | Ki [5] | IC50 [6] | Ki [6] | IC50 [7] | Ki [7] | IC50 [8] | Ki [8] | IC50 [9] | Ki [9] | IC50 [10] | Ki [10] | IC50 [11] | Ki [11]
